From patent US11814367B2, “Inhibitors of glycogen synthase 1 (GYS1) and methods of use thereof” (Maze Therapeutics, Inc., priority 2021, dated 2023)

How the values were obtained:
[1] = target: hGYS1 enzyme (recombinant hGYS1/GN1 protein) (Homo sapiens (Human), UniProt P13807); assay: GYS1 coupled enzyme assay (PK/LDH); format: biochemical; conditions: hGYS1/GN1 50 nM, UDP-Glucose 0.8 mM, G6P 1 mM; geometric mean of at least 2 runs
[2] = system: hGYS1 enzyme / glycogen synthesis in HeLa cells; assay: GYS1 cell based assay (glycogen synthesis, Glucose-glo); set-up: species or system human; conditions: 24 h incubation, 20 mM glucose, geometric mean of at least 2 runs
Text: The GYS1 cell based assay is a bioluminescent assay that quantifies the glucose resulting from glycogen digestion; the quantified glucose is an indirect measure of GYS1 glycogen synthesis. Newly synthesized glycogen is digested using Glucoamylase; the resulting glucose is quantified by using the Glucose-glo assay kit from Promega. Glucose-glo works by coupling glucose oxidation and NADH production with a bioluminescent system that is activated with NADH. Glucose is oxidized by Glucose dehydrogenase and the reaction reduces NAD+ to NADH; NADH activates Reductase which reduces a pro-luciferin Reductase Substrate to luciferin. Luciferin is detected in a luciferase reaction using Ultra-Glo rLuciferase and ATP, and the luminesce produced is proportional to the glucose in the sample. The luminescence is measured as a single point read in a plate reader.
Compounds that inhibit the hGYS1 enzyme and, subsequently, the glycogen synthesis in cells, were tested using assay ready plates (white, clear bottom 384 well plates) in a final DMSO reaction volume of 1% DMSO. Compounds in the assay ready plates were mixed with media with no additives, except for 20 mM glucose prior to cell addition. HeLa cells were starved in media with no additives, except for 1× Glutamax for 24 h. Starved HeLa cells were plated, in a 1:1 ratio to the media in the assay ready plate and incubated for 24 h at 37° C. and 5% C02. Cells were washed in 1×PBS buffer and lysed in lysis buffer containing 50% 1×PBS and 25% 0.3 N HCl of the final volume in the well or reaction volume; cells were incubated with lysis buffer for 10 minutes and quenched with the remaining 25% of the reaction volume that consisted of 450 mM Tris pH 8.0. Lysates were mixed in a 1:1 ratio with Glucoamylase in 100 mM Sodium Acetate buffer, pH 5.3; the mixture was incubated for 1 h at 37° C. The digested lysate was mixed in a 1:1 ratio with Glucose-glo detection mixture as per vendor recommendations (Luciferase detection buffer, Reductase, Reductase substrate, Glucose dehydrogenase, and NAD) in read-out plates (solid white 384-well plates) and incubated for 1 h at RT. The plates were read using a plate reader with luminescence capabilities. Each compound concentration Relative Luminescence Unit (RLU) was averaged and normalized to the average RLU of the positive and negative controls to obtain a percentage inhibition. The normalized data vs. concentration was plotted; to determine the half-maximal concentration (IC50), the Levenberg-Marquardt algorithm was used to fit a Hill equation to the dose response data.
The results are shown in Table 3 below, which reports the IC50 of each compound. Unless otherwise specified, IC50 values are reported as the geometric mean of at least 2 assay runs on separate days. As shown in the table below, the compounds of the present invention are potent inhibitors of human GYS1. Unless otherwise specified, IC50 values are reported as the geometric mean of at least two assay runs on separate days. Each run represents the average of a technical replicate, where each compound was assayed twice in the same plate. A superscript “#” symbol in Table 3 indicates results from a single assay run.

hGYS1 enzyme (recombinant hGYS1/GN1 protein), sequence (P13807 whole entry): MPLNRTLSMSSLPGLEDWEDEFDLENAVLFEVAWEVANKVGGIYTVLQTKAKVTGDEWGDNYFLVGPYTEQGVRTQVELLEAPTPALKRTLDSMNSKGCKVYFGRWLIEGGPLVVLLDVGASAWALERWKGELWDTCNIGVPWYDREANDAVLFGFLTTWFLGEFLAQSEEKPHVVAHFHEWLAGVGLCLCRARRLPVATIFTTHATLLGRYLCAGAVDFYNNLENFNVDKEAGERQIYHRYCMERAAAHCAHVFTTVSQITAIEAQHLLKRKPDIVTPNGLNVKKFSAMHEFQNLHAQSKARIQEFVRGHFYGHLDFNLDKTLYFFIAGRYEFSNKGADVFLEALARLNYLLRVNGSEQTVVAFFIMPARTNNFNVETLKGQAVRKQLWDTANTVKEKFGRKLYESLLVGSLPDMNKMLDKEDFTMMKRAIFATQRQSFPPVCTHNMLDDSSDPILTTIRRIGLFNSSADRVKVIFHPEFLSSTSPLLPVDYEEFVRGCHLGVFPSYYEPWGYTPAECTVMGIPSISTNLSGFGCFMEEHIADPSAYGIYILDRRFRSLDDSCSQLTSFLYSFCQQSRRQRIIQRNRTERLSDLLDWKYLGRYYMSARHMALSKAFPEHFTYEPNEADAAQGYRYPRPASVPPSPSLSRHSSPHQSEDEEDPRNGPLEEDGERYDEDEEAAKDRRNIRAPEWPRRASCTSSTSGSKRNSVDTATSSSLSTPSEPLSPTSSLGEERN
hGYS1 enzyme (recombinant hGYS1/GN1 protein), sequence (P46976 whole entry partner): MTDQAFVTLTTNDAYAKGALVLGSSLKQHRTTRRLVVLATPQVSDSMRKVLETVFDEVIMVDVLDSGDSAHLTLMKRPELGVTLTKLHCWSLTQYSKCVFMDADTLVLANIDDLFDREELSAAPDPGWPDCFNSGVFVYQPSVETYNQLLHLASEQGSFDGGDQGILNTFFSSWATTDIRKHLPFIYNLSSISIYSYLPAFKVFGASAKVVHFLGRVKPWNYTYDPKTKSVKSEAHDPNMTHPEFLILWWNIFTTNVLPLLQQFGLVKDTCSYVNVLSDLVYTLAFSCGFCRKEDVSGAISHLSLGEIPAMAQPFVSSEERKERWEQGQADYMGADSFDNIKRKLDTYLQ

| IC50 [1] | IC50 ([2]; Homo sapiens, HeLa, 24 h) | IC50 [2] | SMILES |
| --- | --- | --- | --- |
| 1150 nM | > 9010 nM |  | CC(C)c1ccc([C@H](NC(=O)[C@@H]2C[C@@H](F)CN2C(=O)Cc2cnn[nH]2)c2ccccc2)nc1F (relative stereo) [Compound 776, (2S,4R)-4-fluoro-N-[(R*)-[6-fluoro-5-(propan-2-yl)pyridin-2-yl](phenyl)methyl]-1-[2-(1H-1,2,3-triazol-5-yl)acetyl] pyrrolidine-2-carboxamide] |
| > 10000 nM |  | > 10000 nM | O=C(NC(c1ccccc1)c1ccc(C2CC2)cn1)[C@@H]1C[C@@H](F)CN1C(=O)Cc1cnn[nH]1 (single isomer, unassigned) [Compound 498, (2S,4R)-1-(2-(1H-1,2,3-triazol-5-yl)acetyl)-N—((R) or (S)-(5-cyclopropylpyridin-2-yl)(phenyl)methyl)-4-fluoropyrrolidine-2-carboxamide] |
| 2860 nM | > 10000 nM |  | CC(C)c1cnc(C(NC(=O)[C@@H]2C[C@@H](F)CN2C(=O)Cc2cnn[nH]2)c2ccccc2)cc1C(F)(F)F (single isomer, unassigned) [Compound 608, (2S,4R)-4-fluoro-N-[(S) or (R)-phenyl[5-(propan-2-yl)-4-(trifluoromethyl)pyridin-2-yl]methyl]-1-[2-(1H-1,2,3-triazol-5-yl)acetyl]pyrrolidine-2-carboxamide] |
| 107 nM | 1010 nM |  | O=C(NC(c1ccccc1)c1ccc(C2CCC2)cn1)[C@@H]1C[C@@H](F)CN1C(=O)Cc1cnn[nH]1 (single isomer, unassigned) [Compound 610, (2S,4R)-N-[(S) or (R)-(5-cyclobutylpyridin-2-yl)(phenyl)methyl]-4-fluoro-1-[2-(1H-1,2,3-triazol-5-yl)acetyl]pyrrolidine-2-carboxamide] |
| 2180 nM | > 29000 nM |  | COc1nc(C(NC(=O)[C@@H]2C[C@@H](F)CN2C(=O)Cc2cnn[nH]2)c2ccccc2)ccc1C(C)C (single isomer, unassigned) [Compound 612, (2S,4R)-4-fluoro-N-[(S) or (R)-[6-methoxy-5-(propan-2-yl)pyridin-2-yl] (phenyl)methyl]-1-[2-(1H-1,2,3-triazol-5-yl)acetyl]pyrrolidine-2-carboxamide] |
| 443 nM | > 10000 nM |  | Cc1cc(C(NC(=O)[C@@H]2C[C@@H](F)CN2C(=O)CNC(=O)N(C)C)c2cccnc2N)ccc1C(C)C (single isomer, unassigned) [Compound 622, (2S,4R)-N-[(R) or (S)-(2-aminopyridin-3-yl)[3-methyl-4-(propan-2-yl)phenyl]methyl]-1-{2-[(dimethylcarbamoyl)amino]acetyl}-4-fluoropyrrolidine-2-carboxamide] |
| 408 nM | 5790 nM |  | Cc1cc(C(NC(=O)[C@@H]2C[C@@H](F)CN2C(=O)Cc2cnn[nH]2)c2cccnc2N)ccc1C(C)C (single isomer, unassigned) [Compound 624, (2S,4R)-N-[(R) or (S)-(2-aminopyridin-3-yl)[3-methyl-4-(propan-2-yl)phenyl]methyl]-4-fluoro-1-[2-(1H-1,2,3-triazol-5-yl)acetyl]pyrrolidine-2-carboxamide] |
| 805 nM | > 30000 nM |  | COc1ncccc1C(NC(=O)[C@@H]1C[C@@H](F)CN1C(=O)Cc1cnn[nH]1)c1ccc(C2(C)CC2)c(F)c1 (single isomer, unassigned) [Compound 626, (2S,4R)-4-fluoro-N-[(R) or (S)-[3-fluoro-4-(1-methylcyclopropyl)phenyl](2-methoxypyridin-3-yl)methyl]-1-[2-(1H-1,2,3-triazol-5-yl)acetyl]pyrrolidine-2-carboxamide] |
| 1620 nM | 29500 nM |  | Cc1ncccc1C(NC(=O)[C@@H]1C[C@@H](F)CN1C(=O)Cc1cnn[nH]1)c1ccc(C2(C)CC2)c(F)c1 (single isomer, unassigned) [Compound 627, (2S,4R)-4-fluoro-N-[(R) or (S)-[3-fluoro-4-(1-methylcyclopropyl)phenyl](2-methylpyridin-3-yl)methyl]-1-[2-(1H-1,2,3-triazol-5-yl)acetyl]pyrrolidine-2-carboxamide] |
| 2780 nM | > 30000 nM |  | CC(C)c1ccc(C(NC(=O)[C@@H]2C[C@@H](F)CN2C(=O)Cc2cnn[nH]2)c2ncc3ccccn23)nc1F (single isomer, unassigned) [Compound 628, (2S,4R)-4-fluoro-N-[(R) or (S)-[6-fluoro-5-(propan-2-yl)pyridin-2-yl]({imidazo[1,5-a]pyridin-3-yl})methyl]-1-[2-(1H-1,2,3-triazol-5-yl)acetyl]pyrrolidine-2-carboxamide] |
| 1480 nM | > 24000 nM |  | CC(C)c1ccc(C(NC(=O)[C@@H]2C[C@@H](F)CN2C(=O)Cc2cnn[nH]2)c2ncn3ccccc23)nc1F (single isomer, unassigned) [Compound 629, (2S,4R)-4-fluoro-N-[(S) or (R)-[6-fluoro-5-(propan-2-yl)pyridin-2-yl]({imidazo[1,5-a]pyridin-1-yl})methyl]-1-[2-(1H-1,2,3-triazol-5-yl)acetyl]pyrrolidine-2-carboxamide] |
| 1600 nM |  | > 30000 nM | CC(C)c1ccc(C(NC(=O)[C@@H]2C[C@@H](F)CN2C(=O)Cc2cnn[nH]2)c2ccc3cn[nH]c3c2)nc1F (single isomer, unassigned) [Compound 633, (2S,4R)-4-fluoro-N-[(R) or (S)-[6-fluoro-5-(propan-2-yl)pyridin-2-yl](1H-indazol-6-yl)methyl]-1-[2-(1H-1,2,3-triazol-5-yl)acetyl]pyrrolidine-2-carboxamide] |
| 1440 nM | > 10000 nM |  | Cn1c(=O)[nH]c2c(C(NC(=O)[C@@H]3C[C@@H](F)CN3C(=O)Cc3cnn[nH]3)c3ccc(C4CC4)c(F)c3)cccc21 (single isomer, unassigned) [Compound 650, (2S,4R)-N-[(R) or (S)-(4-cyclopropyl-3-fluorophenyl)(1-methyl-2-oxo-2,3-dihydro-1H-1,3-benzodiazol-4-yl)methyl]-4-fluoro-1-[2-(1H-1,2,3-triazol-5-yl)acetyl]pyrrolidine-2-carboxamide] |
| 1200 nM | 21600 nM |  | CC(C)c1ccc(C(NC(=O)[C@@H]2C[C@@H](F)CN2C(=O)Cc2cnn[nH]2)C2CC2)cc1F (single isomer, unassigned) [Compound 652, (2S,4R)-N-[(S) or (R)-cyclopropyl[3-fluoro-4-(propan-2-yl)phenyl]methyl]-4-fluoro-1-[2-(1H-1,2,3-triazol-5-yl)acetyl]pyrrolidine-2-carboxamide] |
| 127 nM | 1500 nM |  | O=C(NC(c1ccc(C2CC2)c(F)n1)c1ccccc1F)[C@@H]1C[C@@H](F)CN1C(=O)Cn1nnnc1C(F)F (single isomer, unassigned) [Compound 657, (2S,4R)-N-[(S) or (R)-(5-cyclopropyl-6-fluoropyridin-2-yl)(2-fluorophenyl)methyl]-1-{2-[5-(difluoromethyl)-1H-1,2,3,4-tetrazol-1-yl]acetyl}-4-fluoropyrrolidine-2-carboxamide] |
|  | 180 nM |  | COc1nc(CC(=O)N2C[C@H](F)C[C@H]2C(=O)N[C@@H](c2ccccc2)c2ccc(C(C)C)c(F)n2)nn1C [Compound 800, (2S,4R)-4-fluoro-N-[(S)-[6-fluoro-5-(propan-2-yl)pyridin-2-yl](phenyl)methyl]-1-[2-(5-methoxy-1-methyl-1H-1,2,4-triazol-3-yl)acetyl] pyrrolidine-2-carboxamide] |
|  | 380 nM |  | CC(C)c1ccc([C@@H](NC(=O)[C@@H]2C[C@@H](F)CN2C(=O)Cc2nc(C(F)(F)F)co2)c2ccccc2)nc1F [Compound 801, (2S,4R)-4-fluoro-N-[(S)-[6-fluoro-5-(propan-2-yl)pyridin-2-yl](phenyl)methyl]-1-{2-[4-(trifluoromethyl)-1,3-oxazol-2-yl]acetyl} pyrrolidine-2-carboxamide] |
